Data from ChEMBL document CHEMBL4680271, “COVID-19: Drug Targets and Potential Treatments” (J Med Chem, 2020).
pIC50: −log10 of the molar value.

Assays:
[1] = Cytotoxicity against African green monkey Vero E6 cells by CCK8 assay; format: cell-based, Vero C1008; conditions: chlorocebus sabaeus
[2] = Inhibition of SARS-CoV2 3C-like protease expressed in Escherichia coli BL21 (DE3) cells using Mca-AVLQSGFR-K(Dnp)K as substrate by fluorescence method; design: species or system Severe acute respiratory syndrome coronavirus 2
[3] = Inhibition of SARS-CoV 3C-like protease expressed in Escherichia coli BL21 using Dabcyl-KTSAVLQSGFRKME-Edans fluorogenic peptide as substrate by fluorometric assay; design: species or system Severe acute respiratory syndrome-related coronavirus
[4] = Inhibition of MERS-CoV 3C-like protease expressed in Escherichia coli BL21 using Dabcyl-KTSAVLQSGFRKME-Edans fluorogenic peptide as substrate by fluorometric assay; design: species or system Middle East respiratory syndrome-related coronavirus
[5] = Inhibition of SARS-CoV2 3C-like protease expressed in Escherichia coli BL21-Gold (DE3) cells using Dabcyl-KTSAVLQSGFRKM-E(Edans)-NH2 as substrate by FRET-based cleavage assay; design: species or system Severe acute respiratory syndrome coronavirus 2
[6] = Inhibition of SARS-CoV 3C-like protease expressed in African green monkey Vero cells using SAVLQSGFRK as substrate by dual luciferase reporter assay; format: cell-based, Severe acute respiratory syndrome-related coronavirus
[7] = Inhibition of C-terminal 6His-tagged SARS-CoV 3C-like protease expressed in Escherichia coli BL21 (DE3) CodonPlus-RIL using 12-mer fluorogenic peptide Dabcyl-KNSTLQSGLRKE-Edans as substrate incubated for 60 mins by fluorescence method; design: species or system Severe acute respiratory syndrome-related coronavirus
[8] = Inhibition of C-terminal 6His-tagged SARS-CoV papain-like protease expressed in Escherichia coli BL21 (DE3) CodonPlus-RIL using Arg-Leu-Arg-Gly-Gly-AMC as substrate by fluorescence method; design: species or system Severe acute respiratory syndrome-related coronavirus

NC(=O)c1nc(F)c[nH]c1=O
CC50 [1]: > 400 µM

Cn1sc(=O)n(Cc2ccccc2)c1=O
pIC50 [2]: 5.60

O=C[C@H](CC1CCNC1=O)NC(=O)[C@@H](Cc1ccccc1)NC(=O)/C=C/c1ccc(Cl)cc1F (stereo not given in full)
pIC50 [3]: 6.70
pIC50 [4]: 5.93

CC(C)(C)CC(=O)Nc1cccc([C@@H](CC2CC2)C(=O)N[C@@H](CC2CCNC2=O)C(=O)C(=O)NCc2ccccc2)c1O (stereo not given in full)
pIC50 [5]: 6.17

COc1ccc(C(=O)/C=C/c2ccc(O)cc2)c(O)c1CC(O)C(C)=O (stereo not given)
pIC50 [6]: 5.15

O=C(/C=C/CCc1ccc(O)c(O)c1)CCc1ccc(O)c(O)c1 [DEHYDROHIRSUTANONOL]
pIC50 [7]: 4.44
pIC50 [8]: 5.39

Nc1nc2c(ncn2CCC(CO)CO)c(=O)[nH]1 [PENCICLOVIR]
CC50 [1]: > 400 µM

NC(=O)c1ncn([C@@H]2O[C@H](CO)[C@@H](O)[C@H]2O)n1 [RIBAVIRIN]
CC50 [1]: > 400 µM
